Measured values from patent publication EP3907227A1, “TRILOBINE DERIVATIVES AND THEIR USE THEREOF IN THE TREATMENT OF MALARIA” (Institut Pasteur, priority 2020, dated 2021).
Like-named read-outs stand apart in the source and are kept apart here.

Columns and labels:
[1] = system: P. berghei ANKA strain GFP-expressing parasites; experiment: In vivo activity, Peters 4-day suppressive test; details: C57BL/6 mice, 10mg/kg i.p. daily for four days
Protocol: In vivo activity was determined as previously described (Malmquist et al. Antimicrob. Agents Chemother. 2015, 59 (2), 950-959) following the Peters 4-day suppressive test (Peters, Ann. Trop. Med. Parasitol. 1975, 69 (2), 155-171), with slight modifications. C57BL/6 mice were infected intraperitoneally (i.p.) with 10^5 P. berghei ANKA strain GFP-expressing parasites (Ishino et al. Cell. Mol. Microbiol. 2006, 59 (4), 1175-1184). Two hours post-infection, mice were treated i.p. with a daily regimen of 10mg/kg of compound 84, or 25mg/kg of chloroquine, or the equivalent vehicle control (distillated water) for four days. Parasitemia was quantified from blood samples collected every day by flow cytometry of 50,000 RBCs and confirmed by Giemsa-stained blood smears.

[2] = system: Strain 5150; experiment: Inhibition of proliferation of multi-resistant field isolates, asynchronous asexual stages, SYBR-green assay; format: cell-based, P. falciparum; details: Plasmodium falciparum; 72h; Cambodian isolate resistant to Chloroquine and Pyrimethamine; mean of three replicates; read-out: IC50 nM Strain 5150 mean*
Protocol: (§1) Compounds 63 and 84 were evaluated regarding the inhibition of the proliferation of multi-resistant field isolates adapted to culture. A panel of four Cambodian strains bearing different molecular markers of resistance were selected: 3D7: Laboratory strain, drug-sensitive, 5150: Cambodian isolate resistant to Chloroquine and Pyrimethamine, 6591: Cambodian isolate resistant to Chloroquine, Pyrimethamine, 5248: Cambodian isolate resistant to Chloroquine, Pyrimethamine, Mefloquine and Artemisinin, 6320: Cambodian isolate resistant to Chloroquine, Pyrimethamine, Piperaquine and Artemisinin.
(§2) IC50 were obtained against asynchronous asexual stages using SYBR-green assay after 72h of incubation with a serial dilution of the compounds. Data represents the mean and SD of 3 independent experiments ran in triplicates. Table 2 illustrates mean IC50 values and their standard deviation in nanomolar.

[3] = system: Strain 6320; experiment: as above; format: cell-based, P. falciparum; details: Plasmodium falciparum; 72h; Cambodian isolate resistant to Chloroquine, Pyrimethamine, Piperaquine and Artemisinin; mean of three replicates; read-out: IC50 nM Strain 6320 mean*
Protocol: as §1, §2

[4] = system: Strain 5248; experiment: as above; format: cell-based, P. falciparum; details: Plasmodium falciparum; 72h; Cambodian isolate resistant to Chloroquine, Pyrimethamine, Mefloquine and Artemisinin; mean of three replicates; read-out: IC50 nM Strain 5248 mean*
Protocol: as §1, §2

[5] = system: Strain 6591; experiment: as above; format: cell-based, P. falciparum; details: Plasmodium falciparum; 72h; Cambodian isolate resistant to Chloroquine, Pyrimethamine; mean of three replicates; read-out: IC50 nM Strain 6591 mean*
Protocol: as §1, §2

[6] = system: Lab. Strain 3D7; experiment: Inhibition of proliferation, asynchronous asexual stages, SYBR-green assay, laboratory strain; format: cell-based, P. falciparum; details: Plasmodium falciparum, 3D7; 72h; laboratory strain, drug-sensitive; mean of three replicates; read-out: IC50 nM Lab. Strain 3D7 mean*
Protocol: as §1, §2

[7] = system: artemisinin-resistant parasites (strains 5150, 6591, 5248 and 6320); experiment: Ring-stage Survival Assay (RSA); format: cell-based, P. falciparum; details: 0-3h rings
Protocol: Since compounds of the invention are active on early ring stage as shown by the experiments on the cell cycle, their ability to kill artemisinin-resistant parasites in the ring-stage survival assay was tested (strains 5150, 6591, 5248 and 6320, Figure 2).
0-3h synchronized ring-stage parasites were exposed to a treatment of 6h with either DMSO, 700nM dihydroartemisinin (DHA), three times the IC50 value of the compound to test or 700nM DHA in combination with three times the IC50 value of the compound to test. Parasitemia was assessed at 72 hours post-synchronization using giemsa-stained thin blood smears. Percentage of survival was calculated in comparison to a DMSO-treated control. The data were obtained in three independent experiments.

[8] = system: asexual NF54 parasites; experiment: Stage-specificity during the asexual cell cycle (6h treatment windows, Giemsa smears); format: cell-based, P. falciparum
Protocol: To assess stage specificity of compounds of the invention, asexual NF54 parasites were tightly synchronized (0 to 3h post-invasion) using gelatin flotation and 5% D-sorbitol-treatment 3h later. […] Following the 6h-treatment, the corresponding cells were pelleted, washed with 10ml RPMI, and put back into culture in 500uL of complete media in a new plate. Parasitemia was assessed at 72 hours post-synchronization using giemsa-stained thin blood smears. Percentage of survival was calculated in comparison to a DMSO-treated control. The data were obtained in three independent experiments.

[9] = system: P. falciparum NF54 (drug-sensitive line); experiment: Inhibition of proliferation of asynchronous asexual cultures (SYBR Green I based assay, 72h); format: cell-based; details: for IC50: SYBR Green I, read-out: Malaria CI50
Protocol: Compounds were provided at a concentration of 10 mM in DMSO.
P. falciparum parasite are cultured using standard protocol (Trager and Jensen, Science 1976, 193(4254), 673-675). Briefly, parasites are cultured at 4% hematocrit (O+ human blood, Etablissement Français du Sang, France) in RPMI1640 complemented with 0.1% Albumax I, HEPES buffer, hypoxanthine, and gentamycin. They are incubated at 37°C under an atmosphere of 5% CO2 and 5% O2.
Compounds of the invention were assayed for a first screen at 5µM in duplicate against asynchronous asexual cultures of P. falciparum NF54 (drug-sensitive line) containing mostly rings (2% hematocrit. 0.5% starting parasitemia). Plates were incubated for 72h at 37°C under a reduced oxygen atmosphere. Parasite growth was assessed using the SYBR Green I based assay.
IC50 were determined using Graphpad Prism 6 software. Dihydroartemisinin (starting concentration 50nM) and DMSO were used as positive and negative controls.

[10] = system: Parasites; experiment: Parasite reduction rate (time needed to kill the parasites); format: cell-based; details: survival curves, duration of treatment versus log viable parasites, Figure 3
Protocol: Parasites are incubated (see for example Sanz et al. PLoS ONE 7, e30949 (2012)) with a compound of the invention (or a reference) for different time-windows, washed, and diluted serially in 96-well plates in fresh red blood cells. Parasites are kept in culture for 3 to 4 weeks, when growth is assessed to evaluate the number of parasites that survive-correlated to the number of wells where growth is found. Survival curves are obtained by plotting the duration of treatment versus the log of the number of viable parasites (figure 3).

With `COc1cc2c3c4c1Oc1cc5c(cc1O4)C(Cc1ccc(OCCCN(C)C)c(c1)Oc1ccc(cc1)CC3N(C)CC2)N(C)CC5` (stereo not drawn) [Compound 84] as the compound, how does the Severe malaria symptoms [1] read?
The Severe malaria symptoms was “do not develop severe malaria symptoms”.

And the Survival after inoculation [1]?
The Survival after inoculation was 16 days.

And the IC50 [2]?
Its IC50 is 251 nM.

And the IC50 [3]?
The IC50 was 183 nM.

And the IC50 [4]?
The IC50 was 346 nM.

What about the IC50 [5] of the same compound?
The IC50 was 167 nM.

And the IC50 [6]?
The IC50 was 136 nM.

What about the “Killing of resistant rings (RSA), compound alone” value ([7]; 6h treatment with three times the IC50 value, Figure 2) of the same compound?
The value was “kills resistant rings using three times the IC50 value in a similar manner whichever the strain considered”.

What about the “Killing of parasites (RSA), in combination with DHA” value ([7]; 6h treatment, three times the IC50 value plus 700nM DHA) of the same compound?
The value was “able to kill the parasites of all the tested strains in combination with 700nM dihydroartemisinin (DHA)”.

And the “Stage-specificity (survival after 6h treatment windows across the 48h cycle)” value ([8]; synchronized NF54, 6h treatment, parasitemia at 72 hours post-synchronization, Figure 1)?
Its value is “active throughout the 48h cycle with an increased efficiency between 12 and 42h post-invasion”.

And the “Concentration from which the compound is active (stage-specificity assay)” value ([8]; tested at one, two and three times the IC50 value)?
Its value is “active starting from the concentration corresponding to 3 times the IC50 value”.

What about the IC50 ([9]; NF54, 72h) of the same compound?
Its IC50 is 137 nM.

And the IC50 ([9]; Plasmodium falciparum, NF54, 72 h)?
The IC50 was 130 ± 35 nM.

And the activity at 5 µM ([9]; Plasmodium falciparum, first screen at 5µM in duplicate, 72h, NF54, read-out: % survival @5uM)?
The activity at 5 µM was 14.9%.

And the “Speed of action (parasite reduction rate)” value [10]?
Its value is “act as fast as dihydroartemisinin (DHA)”.
